Experimental data: US20060093553A1, “Cd26-based therapies for cancers and immune disease” (priority 2002, published 2006)

Key:
[1] = molecular target: T1, M6P/IGF-IIR on monocytes (Homo sapiens, UniProt P11717); test: Inhibition of sCD26 uptake into monocytes by M6P (FACS); assay type: cell-based; settings: M6P 0, 0.1, 1.0, and 10 μM; concentration dependent; with or without TT; FIGS. 11A, 11B
T1 construct: endogenous in cells; host or cells: purified peripheral blood monocytes
Experimental: (§1) In studies assessing the expression of CD80, CD86, and HLA-DR on purified monocytes (0.5×10^6 monocytes/well), monocytes were preincubated with or without TT (0.5 μg/ml) for 16 h. Following incubation with sCD26 (0.5 μg/ml) for 24 h, FITC-conjugated CD80, CD86, and HLA-DR mAbs (10 μg/ml) were used with PE-conjugated anti-CD14 (10 μg/ml) to gate exclusively on the monocyte population. In experiments assessing the effect of M6P on cellular uptake of sCD26, purified monocytes (0.5×10^6 monocytes/well) were incubated with the appropriate concentration of M6P in the presence or absence of sCD26-OG for 24 h in standard medium. Cells were then washed twice in ice-cold PBS, followed by incubation for 2 min in acidic PBS (pH 3.0) to strip any sCD26-OG attached to the cell surface. Cells were washed in ice-cold PBS and were incubated with mouse Ig isotypes (1 μg/ml) to block nonspecific binding; this was followed by reaction with PE-conjugated anti-CD14 (10 μg/ml) to gate exclusively on monocyte population.

[2] = system: CD80 expression on monocytes; test: Surface expression on monocytes (flow cytometry); assay type: cell-based, Human
Experimental: as §1
(§2) Flow cytometric analysis of 10,000 viable cells was conducted on FACSCalibur (BD Biosciences, Mountain View, Calif.). Each experiment was repeated at least three times, and the results were provided in the form of a histogram of a representative experiment, or increased mean percent±SE fluorescent intensity compared with control or untreated cells.

[3] = system: CD86 expression on monocytes; test: Surface expression on monocytes (flow cytometry); assay type: cell-based, Human
Experimental: as §1, §2

[4] = system: HLA-DR expression on monocytes; test: Surface expression on monocytes (flow cytometry); assay type: cell-based, Human
Experimental: as §1, §2

[5] = system: S630A Jurkat transfectants; test: MTT uptake (cell growth) assay; assay type: cell-based, Human
Experimental: (§3) Cell growth assay was performed as described previously (Hansen et al., 1989). Cells were incubated in microplates in the presence of culture media alone, culture media and […] (50 μg/ml), culture media and doxorubicin at the indicated concentrations, or culture media, […]), and doxorubicin at the indicated concentrations, for a total volume of 100 μl (50,000 cells/well). After 48 h of incubation at 37° C., 25 μl of MTT was added to the wells at a final concentration of 1 mg/ml. The microplates were then incubated for 2 h at 37° C., followed by the addition of 100 μl of extraction buffer. After overnight incubation at 37° C., A570/nm measurements at 570 nm were performed, with the SE of the triplicate wells being less than 15%. MTT Assay. Cell growth assay was performed as described previously (Aytac et al., 2001). […] Following 36-48 h of incubation at 37° C., 25 ul of MET was added to the wells at a final concentration of 1 mg/ml. The microplates were then incubated for 2 h at 37° C., followed by the addition of 100 ul of extraction buffer. Following overnight incubation at 37° C., OD measurements at 570 nm were performed, with the standard errors of the mean of the triplicate wells being less than 15%. Cytotoxicity index was calculated as follows: [formula]

[6] = system: wtCD26 Jurkat transfectants; test: MTT uptake (cell growth) assay; assay type: cell-based, Human
Experimental: as §3

[7] = system: 340-4 Jurkat transfectants; test: Annexin V/PI apoptosis assay; assay type: cell-based, Human
Experimental: (§4) Annexin/PI Assays. Exposure of phosphatidylserine residues was quantified by surface annexin V staining as previously described (Vermes et al., 1995; […] and Pollard, 1994; Martin et al., 1995)). Briefly, cells were washed in binding buffer (10 mM HEPES, pH 7.4, 2.5 mM CaCl2, 140 mM NaCl), resuspended in 100 μl and incubated with 0.5 μl/ml annexin V-fluoresencein isothiocyanate (FITC) and 2.5 μg/ml propiodium iodide (PI) for 15 minutes in the dark. Cells were then washed again and resuspended in 400 μl of binding buffer, then flow cytometric analysis (FACScan; Becton Dickinson) was performed. Ten thousand cells were acquired per sample using Cellquest software and data were analyzed with the Paint-a-gate software (Becton Dickinson).

[8] = system: wtCD26 Jurkat transfectants; test: Annexin V/PI apoptosis assay; assay type: cell-based, Human
Experimental: as §4

[9] = system: nontransfected control (parental) Jurkat cells; test: Cell cycle analysis (propidium iodide staining); settings: 24 h; for % G0/G1 / % G2/M / % S: Parental Jurkat; for Percentage G0G1 / Percentage G2/M / Percentage S: Control Jurkat
[10] = system: S630A mutant CD26-positive/DPPIV-negative Jurkat transfectant; test: Cell cycle analysis (propidium iodide staining); settings: 24 h
[11] = system: wild-type CD26-transfected Jurkat cell lines (wtCD26); test: Cell cycle analysis (propidium iodide staining); settings: 24 h; for % G0/G1 / % G2/M / % S: wtCD26 transfectant; for Percentage G0G1 / Percentage G2/M / Percentage S: WtCD26 transfectant
[12] = system: wtCD26 Jurkat transfectant; test: Immunoblotting of etoposide-induced apoptosis markers after z-LEHD-fmk preincubation; assay type: cell-based, Human
Experimental: SDS-PAGE and Immunoblotting. After incubation at 37° C. in culture media and etoposide or doxorubicin at the concentrations and duration indicated, cells were harvested from wells, washed with PBS, and lysed in lysis buffer consisting of 1% NP-40, 0.5% deotxycolate, 0.1% SDS, 1 mM phenyhmethylsulfonyl fluoride, 1 mM benzamidine, 10 μg/ml aprotinin, 50 μg/ml leupeptin, 10 μg/ml soybean trypsin inhibitor and 1 μg/ml pepstatin. After incubating on ice for 5 min, nuclei were removed by centrifugation and supernatants were collected as whole cell lysates. Sample buffer (4×) consisting of 20% glycerol, 4.6% SDS, 0.5 M Tris (pH 6.8), 4% β-mercaptoethanol, and 0.2% bromophenol blue was added to the appropriate aliquots of supernatants. After boiling, protein samples were submitted to SDS-PAGE analysis on an 8% gel under standard conditions using a mini-Protean II system (Bio-Rad). For immunoblotting, the proteins were transferred onto nitrocellulobse (Immobilon-P; Millipore). After overnight. blocking at 4° C. in blocking solution consisting of 0.1% Tween 20 and 5% BSA in Tris-buffered saline, membranes were blotted with the appropriate primary antibodies diluted in blocking solution for 1 hour at room temperature. Membranes were then washed with blocking solution, and appropriate secondary antibodies diluted in blocking solution were then applied for 1 hour at room temperature. Secondary antibodies were goat antimouse or goat antirabbit horseradish peroxidase conjugates (Dako). Membranes were then washed with blocking solution, and proteins were subsequently detected by chemiluininescence (Amersham Pharmacia Biotech).

[13] = system: 340-4 mutant CD26-positive/DPPIV-positive Jurkat transfectant; test: Cell cycle analysis (propidium iodide staining); assay type: cell-based, Human; settings: 24 h, 340-4 transfectant
[14] = system: 340-4 Jurkat transfectants; test: MTT uptake (cell growth) assay; assay type: cell-based, Human; settings: 340-4 transfectants, similar to wtCD26; 48 h; FIG. 1
[15] = AIM V serum-free media, Etoposide 0.25 uM
[16] = AIM V serum-free media, Etoposide 0.50 uM
[17] = Etoposide 0.10 uM, S630A transfectant
[18] = Etoposide 0.25 uM, S630A transfectant
[19] = 2 hours preincubation with z-LEHD-fmk, then 3 μM etoposide 48 hours, FIG. 22B
[20] = AIM V serum-free media, Doxorubicin 0.10 uM
[21] = AIM V serum-free media, Doxorubicin 0.25 uM
[22] = Doxorubicin 0.01 μM, S63A transfectant
[23] = Doxorubicin 0.05 μM, S630A transfectant

T1 sequence (P11717 41-2491): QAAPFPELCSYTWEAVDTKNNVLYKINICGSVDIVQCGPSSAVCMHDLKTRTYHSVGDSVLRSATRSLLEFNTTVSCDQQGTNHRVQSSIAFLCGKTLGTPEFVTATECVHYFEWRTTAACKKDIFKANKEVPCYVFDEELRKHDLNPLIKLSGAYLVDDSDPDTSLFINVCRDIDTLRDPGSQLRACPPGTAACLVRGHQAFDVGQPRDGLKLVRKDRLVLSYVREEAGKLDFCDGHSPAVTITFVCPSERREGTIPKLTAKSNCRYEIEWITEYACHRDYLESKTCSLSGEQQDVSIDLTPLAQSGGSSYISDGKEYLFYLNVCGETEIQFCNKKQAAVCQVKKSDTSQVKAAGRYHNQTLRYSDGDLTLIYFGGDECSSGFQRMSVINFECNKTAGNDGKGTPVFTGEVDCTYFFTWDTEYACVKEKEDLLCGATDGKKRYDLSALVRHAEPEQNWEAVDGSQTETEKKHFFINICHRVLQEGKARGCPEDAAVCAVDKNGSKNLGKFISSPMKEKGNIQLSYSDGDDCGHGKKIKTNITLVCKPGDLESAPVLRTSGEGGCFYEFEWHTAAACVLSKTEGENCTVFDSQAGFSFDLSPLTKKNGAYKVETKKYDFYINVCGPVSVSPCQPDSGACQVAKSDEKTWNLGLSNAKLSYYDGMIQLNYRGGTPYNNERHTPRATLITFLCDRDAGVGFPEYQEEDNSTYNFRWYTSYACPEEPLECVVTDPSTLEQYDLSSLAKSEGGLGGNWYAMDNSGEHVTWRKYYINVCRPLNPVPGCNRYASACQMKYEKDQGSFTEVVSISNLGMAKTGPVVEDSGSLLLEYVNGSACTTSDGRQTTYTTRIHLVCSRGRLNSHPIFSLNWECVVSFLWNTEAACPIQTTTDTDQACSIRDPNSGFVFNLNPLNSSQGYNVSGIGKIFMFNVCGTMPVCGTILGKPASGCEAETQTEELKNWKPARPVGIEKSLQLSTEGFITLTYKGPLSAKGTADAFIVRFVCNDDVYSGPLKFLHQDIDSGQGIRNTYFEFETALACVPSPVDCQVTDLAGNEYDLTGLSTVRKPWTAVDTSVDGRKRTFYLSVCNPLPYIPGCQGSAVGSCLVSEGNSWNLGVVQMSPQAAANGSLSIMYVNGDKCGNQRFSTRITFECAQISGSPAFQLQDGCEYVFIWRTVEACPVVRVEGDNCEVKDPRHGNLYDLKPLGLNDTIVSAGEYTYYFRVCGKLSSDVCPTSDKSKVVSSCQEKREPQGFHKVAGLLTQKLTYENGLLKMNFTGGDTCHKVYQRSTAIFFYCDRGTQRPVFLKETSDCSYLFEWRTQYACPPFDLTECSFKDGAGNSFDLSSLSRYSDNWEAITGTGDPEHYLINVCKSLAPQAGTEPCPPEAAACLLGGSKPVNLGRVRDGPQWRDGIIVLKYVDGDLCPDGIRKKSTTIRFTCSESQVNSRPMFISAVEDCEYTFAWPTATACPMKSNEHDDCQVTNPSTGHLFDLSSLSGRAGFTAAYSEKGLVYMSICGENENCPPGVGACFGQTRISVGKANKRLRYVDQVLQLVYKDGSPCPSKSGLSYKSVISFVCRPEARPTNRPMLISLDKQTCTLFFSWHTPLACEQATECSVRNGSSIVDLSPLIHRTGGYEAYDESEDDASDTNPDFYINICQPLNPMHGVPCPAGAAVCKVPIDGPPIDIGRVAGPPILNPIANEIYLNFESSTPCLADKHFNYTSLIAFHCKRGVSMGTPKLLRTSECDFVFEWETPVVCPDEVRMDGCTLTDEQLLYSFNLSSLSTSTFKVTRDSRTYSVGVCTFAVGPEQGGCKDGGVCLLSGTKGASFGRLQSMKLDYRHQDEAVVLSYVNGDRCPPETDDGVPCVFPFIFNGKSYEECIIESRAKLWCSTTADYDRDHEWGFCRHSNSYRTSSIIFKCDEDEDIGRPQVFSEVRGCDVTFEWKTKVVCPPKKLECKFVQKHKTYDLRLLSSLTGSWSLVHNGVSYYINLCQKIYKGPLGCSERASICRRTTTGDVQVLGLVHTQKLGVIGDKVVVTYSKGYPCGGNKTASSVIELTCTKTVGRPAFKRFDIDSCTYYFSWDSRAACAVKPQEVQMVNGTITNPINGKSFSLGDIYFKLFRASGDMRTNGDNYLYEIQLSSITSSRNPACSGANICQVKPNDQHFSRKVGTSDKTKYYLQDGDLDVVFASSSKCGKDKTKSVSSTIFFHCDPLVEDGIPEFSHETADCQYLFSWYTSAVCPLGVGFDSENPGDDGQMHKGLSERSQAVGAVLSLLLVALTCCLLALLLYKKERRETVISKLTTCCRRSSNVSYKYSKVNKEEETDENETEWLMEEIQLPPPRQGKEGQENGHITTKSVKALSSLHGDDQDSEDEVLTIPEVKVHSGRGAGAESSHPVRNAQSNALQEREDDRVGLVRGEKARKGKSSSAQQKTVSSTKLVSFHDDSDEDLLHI

O=P(O)(O)OC[C@H]1OC(O)[C@@H](O)[C@@H](O)[C@@H]1O (some centres unmarked) [M6P]
uptake of sCD26 into monocytes [1]: inhibited the uptake of sCD26 into monocytes

TT: recall antigen tetanus toxoid
% Increase of CD80 expression on monocytes [2]: 2.0 ± 0.4%
% Increase of CD86 expression on monocytes [3]: 1.2 ± 2%
% Increase of HLA-DR expression on monocytes [4]: 0.3 ± 0.2%

COc1cc([C@@H]2c3cc4c(cc3[C@@H](O[C@@H]3O[C@@H]5CO[C@@H](C)O[C@H]5[C@H](O)[C@H]3O)[C@H]3COC(=O)[C@H]23)OCO4)cc(OC)c1O [Etoposide]
etoposide-mediated growth inhibition (MTT), sensitivity ([5]; S630A compared to wtCD26 transfectants, FIG. 5): less sensitive
etoposide-mediated growth inhibition (MTT), sensitivity ([6]; wtCD26 compared to parental cells, FIG. 5): significantly increased sensitivity
etoposide-induced apoptosis (Annexin V/PI) ([7]; 340-4 transfectants, similar to wtCD26, 14 hours, FIG. 15A): higher level of drug-induced apoptosis
etoposide-induced apoptosis (Annexin V/PI) ([8]; wtCD26 vs S630A or parental control Jurkat, 14 hours, FIG. 15A): more sensitive to the apoptotic effect
% G0/G1 [9, 15]: 51%
% G2/M [9, 15]: 19%
% S [9, 15]: 30%
% G0/G1 [9, 16]: 36%
% G2/M [9, 16]: 36%
% S [9, 16]: 28%
% G0/G1 ([9]; Etoposide 0.10 uM): 41%
% G2/M ([9]; Etoposide 0.10 uM): 21%
% S ([9]; Etoposide 0.10 uM): 38%
% G0/G1 ([9]; Etoposide 0.25 uM): 27%
% G2/M ([9]; Etoposide 0.25 uM): 41%
% S ([9]; Etoposide 0.25 uM): 32%
% G0/G1 [10, 17]: 34%
% G2/M [10, 17]: 29%
% S [10, 17]: 37%
% G0/G1 [10, 18]: 22%
% G2/M [10, 18]: 48%
% S [10, 18]: 30%
% G0/G1 [11, 15]: 34%
% G2/M [11, 15]: 43%
% S [11, 15]: 23%
% G0/G1 [11, 16]: 18%
% G2/M [11, 16]: 64%
% S [11, 16]: 18%
% G0/G1 ([11]; Etoposide 0.10 uM): 25%
% G2/M ([11]; Etoposide 0.10 uM): 56%
% S ([11]; Etoposide 0.10 uM): 19%
% G0/G1 ([11]; Etoposide 0.25 uM): 12%
% G2/M ([11]; Etoposide 0.25 uM): 69%
% S ([11]; Etoposide 0.25 uM): 19%

z-LEHD-fmk
etoposide-mediated cleavage of pro-caspase-9 ([12]; 2 hours preincubation with z-LEHD-fmk at varying doses, then 3 μM etoposide 16 hours, FIG. 18): inhibited by z-LEHD-fink in dose-dependent manner
cleavage of pro-caspase-3 and PARP ([12]; 2 hours preincubation with z-LEHD-fmk, then 3 μM etoposide 16 hours, FIG. 18): significantly reduced
etoposide-induced 32 kDa DR5 band [12, 19]: no longer detectable
etoposide-induced increase in the 58 kDa DR5 band [12, 19]: significantly attenuated

COc1cccc2c1C(=O)c1c(O)c3c(c(O)c1C2=O)C[C@@](O)(C(=O)CO)C[C@@H]3O[C@H]1C[C@H](N)[C@H](O)[C@H](C)O1 [Doxorubicin]
Percentage G0G1 ([13]; Doxorubicin 0.01 μM): 25%
Percentage G2/M ([13]; Doxorubicin 0.01 μM): 50%
Percentage S ([13]; Doxorubicin 0.01 μM): 25%
Percentage G0G1 ([13]; Doxorubicin 0.05 μM): 11%
Percentage G2/M ([13]; Doxorubicin 0.05 μM): 78%
Percentage S ([13]; Doxorubicin 0.05 μM): 11%
doxorubicin-mediated growth inhibition (MTT), sensitivity ([5]; S630A transfectants, 48 h, FIG. 1): less sensitive
doxorubicin-mediated growth inhibition (MTT), sensitivity ([6]; wtCD26 compared with parental (control) or vector only (neo) Jurkat cells, 48 h, FIG. 1): markedly increased sensitivity
doxorubicin-mediated growth inhibition (MTT), sensitivity [14]: greater doxorubicin sensitivity
doxorubicin-induced apoptosis (Annexin V/PI) ([7]; 340-4 compared with parental or S630A Jurkat, 16 hours, FIG. 15B): greater apoptosis
doxorubicin-induced apoptosis (Annexin V/PI) ([8]; wtCD26 compared with parental or S630A Jurkat, 16 hours, FIG. 15B): greater apoptosis
% G0/G1 [9, 20]: 43%
% G2/M [9, 20]: 27%
% S [9, 20]: 30%
% G0/G1 [9, 21]: 36%
% G2/M [9, 21]: 41%
% S [9, 21]: 23%
Percentage G0G1 ([9]; Doxorubicin 0.01 μM): 40%
Percentage G2/M ([9]; Doxorubicin 0.01 μM): 34%
Percentage S ([9]; Doxorubicin 0.01 μM): 26%
Percentage G0G1 ([9]; Doxorubicin 0.05 μM): 32%
Percentage G2/M ([9]; Doxorubicin 0.05 μM): 37%
Percentage S ([9]; Doxorubicin 0.05 μM): 31%
Percentage G0G1 [10, 22]: 33%
Percentage G2/M [10, 22]: 35%
Percentage S [10, 22]: 32%
Percentage G0G1 [10, 23]: 27%
Percentage G2/M [10, 23]: 38%
Percentage S [10, 23]: 35%
% G0/G1 [11, 20]: 31%
% G2/M [11, 20]: 49%
% S [11, 20]: 20%
% G0/G1 [11, 21]: 14%
% G2/M [11, 21]: 74%
% S [11, 21]: 12%
Percentage G0G1 ([11]; Doxorubicin 0.01 μM): 11%
Percentage G2/M ([11]; Doxorubicin 0.01 μM): 62%
Percentage S ([11]; Doxorubicin 0.01 μM): 27%
Percentage G0G1 ([11]; Doxorubicin 0.05 μM): 6%
Percentage G2/M ([11]; Doxorubicin 0.05 μM): 69%
Percentage S ([11]; Doxorubicin 0.05 μM): 25%
